Results as given in patent US20250354185A1, “BLUE PIGMENT AND BIOSYNTHESIS METHOD THEREOF” (VERTEXYN BIOWORKS CO., LTD., priority 2024, published 2025).

Legend:
Format in all cases: physicochemical
[1] = Comparison of colors of solutions in water (ddH2O); conditions: 1 mg dissolved with 10 mL of ddH2O; visual observation
Protocol: 1 mg of an indigoidine standard was weighed and dissolved with 10 mL of ddH2O to produce a solution of indigoidine in ddH2O. 1 mg of N-acetyl-indigoidine purified in Example 4 was weighed and dissolved with 10 mL of ddH2O to produce a solution of N-acetyl-indigoidine in ddH2O. A color difference between the solution of indigoidine in ddH2O and the solution of N-acetyl-indigoidine in ddH2O was observed, and results were shown in FIG. 17A and FIG. 17B. […] It can be seen that N-acetyl-indigoidine has a more authentic color than indigoidine.

[2] = Comparison of colors of solutions in DMSO; conditions: 1 mg dissolved with 10 mL of DMSO; visual observation
Protocol: 1 mg of an indigoidine standard was weighed and dissolved with 10 mL of DMSO to produce a solution of indigoidine in DMSO. 1 mg of N-acetyl-indigoidine purified in Example 4 was weighed and dissolved with 10 mL of DMSO to produce a solution of N-acetyl-indigoidine in DMSO. A color difference between the solution of indigoidine in DMSO and the solution of N-acetyl-indigoidine in DMSO was observed, and results were shown in FIG. 16A and FIG. 16B. […] The solution of N-acetyl-indigoidine in DMSO has a more vibrant and brighter color than the solution of indigoidine in DMSO.

[3] = Ultraviolet-visible absorption spectrum of HPLC product peaks; conditions: HPLC peaks of experimental group 5 (8.8 min indigoidine, 9.9 min N-acetyl-indigoidine)
Protocol: Wavelength: 600 nm. Flow rate: 1.0 mL/min. Sample solvent: DMSO. Injection volume: 10 μL. Column temperature: 35° C. Running time: 18 min.
Experimental group 5:50 mL of a fermentation broth of the strain HG-N-Idg01 cultured according to the method in Example 2 was collected and centrifuged to produce a cell pellet. The cell pellet was resuspended with 10 mL of a catalytic solution (including 1 g/L of glutaminc, 1 g/L of N-acetylglutamine, and 50 mM of a phosphate buffer), and a reaction was allowed at 25° C. and 220 rpm for 6 h. 100 μL of a sample was collected and tested by HPLC.
FIG. 2A and FIG. 2B show the wavelengths corresponding to the maximum absorption peaks of the experimental group 5.

Molecule | color of the solution in ddH2O [1] | color of the solution in DMSO [2] | wavelength corresponding to the maximum absorption peak [3] [nm]
CC(=O)NC1=C/C(=C2/C=C(N)C(=O)NC2=O)C(=O)NC1=O [N-acetyl-indigoidine] | blue | bright-blue | 584
Indigoidine | purple-blue | blue | 600
